We go through 22 compounds from US20160159789A1, “SUBSTITUTED PYRAZOLOPYRIDINES” (BAYER PHARMA AKTIENGESELLSCHAFT, priority 2013, published 2016).

In the assay the target is T1, human full-length MKNK1 (Homo sapiens, UniProt Q9BUB5, T385D).
T1 construct: purchased Carna Biosciences 02-145; host or cells: insect cells (baculovirus expression system)
T1 sequence (Q9BUB5 1-424 isoform Q9BUB5-2 T344D): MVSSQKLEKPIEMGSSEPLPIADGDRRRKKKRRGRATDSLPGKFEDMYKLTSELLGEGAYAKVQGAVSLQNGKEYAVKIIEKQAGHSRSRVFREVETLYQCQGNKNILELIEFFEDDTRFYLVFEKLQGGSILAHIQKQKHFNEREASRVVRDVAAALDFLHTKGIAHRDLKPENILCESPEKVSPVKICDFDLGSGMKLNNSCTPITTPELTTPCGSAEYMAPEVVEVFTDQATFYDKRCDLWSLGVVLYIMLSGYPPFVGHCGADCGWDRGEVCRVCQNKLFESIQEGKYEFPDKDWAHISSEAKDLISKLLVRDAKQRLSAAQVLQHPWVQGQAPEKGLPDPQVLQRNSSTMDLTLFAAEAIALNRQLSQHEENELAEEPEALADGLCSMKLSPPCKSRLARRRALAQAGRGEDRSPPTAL
Nature of the assay: MKNK1 kinase high ATP assay (TR-FRET). The assay is classed as biochemical. To be noted: high ATP (2 mM final), 15 min preincubation with enzyme, GST-MKNK1 (T344D). An outline of the steps:
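GST-tagged full-length human MKNK1 from insect cells, preincubated 15 min with compound at 22° C in HEPES pH 7.5/MgCl2/DTT buffer, then reacted 30 min with 2 mM ATP and 0.06 μM biotinylated peptide (final). Phosphopeptide detected by TR-FRET (anti-pS6 pSer236/Eu-ProteinG, streptavidin-XL665), 665/620 ratio normalised to no-enzyme and no-inhibitor controls.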
Background: In TR-FRET formats the signal depends on donor and acceptor labels being close together.
The term IC50 denotes the concentration needed to halve the response being measured. Regarding `COc1nc2[nH]ncc2cc1Nc1ncnc2sc3c(c12)CC[C@H](C(=O)N1CC[C@@H](N(C)C)C1)C3` [Example 110, [(3R)-3-(Dimethylamino)pyrrolidin-1-yl]{(7S)-4-[(6-methoxy-1H-pyrazolo[3,4-b]pyridin-5-yl)amino]-5,6,7,8-tetrahydro[1]benzothieno[2,3-d]pyrimidin-7-yl}methanone], the IC50 came out at 0.4 nM.

In turn, `COc1nc2[nH]ncc2cc1Nc1ncnc2sc(C(=O)N(C)CCC(=O)N(C)C)nc12` [Example 138, N-[3-(Dimethylamino)-3-oxopropyl]-7-[(6-methoxy-1H-pyrazolo[3,4-b]pyridin-5-yl)amino]-N-methyl[1,3]thiazolo[5,4-d]pyrimidine-2-carboxamide] returned an IC50 of 114 nM. Against the preceding compound, the IC50 is about 280-fold higher.

As to `O=C([C@H]1CCc2c(sc3ncnc(Nc4cc5cn[nH]c5cn4)c23)C1)N1CC2(COC2)C1` [Example 83, 2-Oxa-6-azaspiro[3.3]hept-6-yl[(7S)-4-(1H-pyrazolo[3,4-c]pyridin-5-ylamino)-5,6,7,8-tetrahydro[1]benzothieno[2,3-d]pyrimidin-7-yl]methanone], the concentration for half-maximal inhibition (IC50) is 6.9 nM. The compound `O=C([C@H]1CCc2c(sc3ncnc(Nc4cc5cn[nH]c5cn4)c23)C1)N1CCC1` [Example 55, Azetidin-1-yl[(7S)-4-(1H-pyrazolo[3,4-c]pyridin-5-ylamino)-5,6,7,8-tetrahydro[1]benzothieno[2,3-d]pyrimidin-7-yl]methanone] displayed a 50% inhibitory concentration (IC50) of 9.7 nM. The IC50 values of the last two compounds are within 1.5-fold of each other. `CCCN(CCOC)C(=O)[C@H]1CCc2c(sc3ncnc(Nc4cc5cn[nH]c5nc4O)c23)C1` [Example 50, (7S)-4-[(6-Hydroxy-1H-pyrazolo[3,4-b]pyridin-5-yl)amino]-N-(2-methoxyethyl)-N-propyl-5,6,7,8-tetrahydro[1]benzothieno[2,3-d]pyrimidine-7-carboxamide]: inhibition was half-maximal at 2.6 nM (IC50). Compared with the last compound, the IC50 is about 3.7-fold lower. For `COc1nc2[nH]ncc2cc1Nc1ncnc2[nH]c(C(=O)N3CCOC[C@@H]3C)c(Br)c12` [Example 135], the IC50 turned out to be 7.3 nM. Take `COc1nc2[nH]ncc2cc1Nc1ncnc2sc3c(c12)CC[C@H](C(=O)N1CC[C@H](N(C)C)C1)C3` [Example 111, [(3S)-3-(Dimethylamino)pyrrolidin-1-yl]{(7S)-4-[(6-methoxy-1H-pyrazolo[3,4-b]pyridin-5-yl)amino]-5,6,7,8-tetrahydro[1]benzothieno[2,3-d]pyrimidin-7-yl}methanone]: half-maximal inhibition (IC50) was put at 1.3 nM.

Consider `COc1nc2[nH]ncc2cc1Nc1ncnc2[nH]c(C(=O)N3CCOCC3)c(Br)c12` [Example 67, {5-Bromo-4-[(6-methoxy-1H-pyrazolo[3,4-b]pyridin-5-yl)amino]-7H-pyrrolo[2,3-d]pyrimidin-6-yl}(morpholin-4-yl)methanone], for which 15.2 nM corresponded to half-maximal inhibition (IC50).

The compound `O=C(c1[nH]c2ncnc(Nc3cc4cn[nH]c4nc3O)c2c1Br)N1CCOCC1` [Example 68] yielded an IC50 of 10.1 nM. This IC50 lies about 1.5-fold lower than the previous one. For `COc1nc2[nH]ncc2cc1Nc1ncnc2sc3c(c12)CC[C@H](C(=O)N(C)CCC(F)(F)F)C3` [Example 136, (7S)-4-[(6-Methoxy-1H-pyrazolo[3,4-b]pyridin-5-yl)amino]-N-methyl-N-(3,3,3-trifluoropropyl)-5,6,7,8-tetrahydro[1]benzothieno[2,3-d]pyrimidine-7-carboxamide], the IC50 amounted to 0.5 nM. For the compound `CN(C)[C@H]1CCN(C(=O)[C@H]2CCc3c(sc4ncnc(Nc5cnc6[nH]ncc6c5)c34)C2)C1` [Example 100, [(3S)-3-(Dimethylamino)pyrrolidin-1-yl][(7S)-4-(1H-pyrazolo[3,4-b]pyridin-5-ylamino)-5,6,7,8-tetrahydro[1]benzothieno[2,3-d]pyrimidin-7-yl]methanone], it took 3.7 nM to reach half-maximal inhibition (IC50). `CC(C)NC(=O)[C@H]1CCc2c(sc3ncnc(Nc4cc5cn[nH]c5cn4)c23)C1` [Example 80, (7S)—N-(Propan-2-yl)-4-(1H-pyrazolo[3,4-c]pyridin-5-ylamino)-5,6,7,8-tetrahydro[1]benzothieno[2,3-d]pyrimidine-7-carboxamide] showed an IC50 of 23.9 nM.

In turn, `COc1nc2[nH]ncc2cc1Nc1ncnc2sc3c(c12)CC[C@H](C(=O)N(C)C(C)C)C3` [Example 37, (7S)-4-[(6-Methoxy-1H-pyrazolo[3,4-b]pyridin-5-yl)amino]-N-methyl-N-(propan-2-yl)-5,6,7,8-tetrahydro[1]benzothieno[2,3-d]pyrimidine-7-carboxamide] had an IC50 of 4.2 nM. For the compound `CN(C)CCNC(=O)c1[nH]c2ncnc(Nc3cc4cn[nH]c4cn3)c2c1Br` [Example 120, 5-Bromo-N-[2-(dimethylamino)ethyl]-4-(1H-pyrazolo[3,4-c]pyridin-5-ylamino)-7H-pyrrolo[2,3-d]pyrimidine-6-carboxamide], the IC50 worked out at 14.5 nM. Regarding `CN(C)C1CCN(C(=O)c2[nH]c3ncnc(Nc4cc5cn[nH]c5cn4)c3c2Br)CC1` [Example 69, [5-Bromo-4-(1H-pyrazolo[3,4-c]pyridin-5-ylamino)-7H-pyrrolo[2,3-d]pyrimidin-6-yl][4-(dimethylamino)piperidin-1-yl]methanone], 19.8 nM corresponded to half-maximal inhibition (IC50). `COc1nc2[nH]ncc2cc1Nc1ncnc2sc3c(c12)CC[C@H](C(=O)N1CC2(COC2)C1)C3` [Example 109] came in with an IC50 of 0.7 nM.

The compound `C[C@@H]1COCCN1C(=O)c1[nH]c2ncnc(Nc3cc4cn[nH]c4cn3)c2c1Br` [Example 70, [5-Bromo-4-(1H-pyrazolo[3,4-c]pyridin-5-ylamino)-7H-pyrrolo[2,3-d]pyrimidin-6-yl][(3R)-3-methylmorpholin-4-yl]methanone] registered an IC50 of 40.7 nM. Against the preceding compound, the IC50 is about 58-fold higher. Compound `COc1nc2[nH]ncc2cc1Nc1ncnc2sc3c(c12)CC[C@H](C(=O)N1CCC1)C3` [Example 35, Azetidin-1-yl{(7S)-4-[(6-methoxy-1H-pyrazolo[3,4-b]pyridin-5-yl)amino]-5,6,7,8-tetrahydro[1]benzothieno[2,3-d]pyrimidin-7-yl}methanone] came in with an IC50 of 2.2 nM. Consider `COCCN(CCOC)C(=O)[C@H]1CCc2c(sc3ncnc(Nc4cc5cn[nH]c5cn4)c23)C1` [Example 56, (7S)—N, N-Bis(2-methoxyethyl)-4-(1H-pyrazolo[3,4-c]pyridin-5-ylamino)-5,6,7,8-tetrahydro[1]benzothieno[2,3-d]pyrimidine-7-carboxamide], for which the IC50 is 8.1 nM. This IC50 is about 3.7-fold higher than that of the compound before. With `C[C@@H]1COCCN1C(=O)c1[nH]c2ncnc(Nc3cnc4[nH]ncc4c3)c2c1Br` [Example 73, [5-Bromo-4-(1H-pyrazolo[3,4-b]pyridin-5-ylamino)-7H-pyrrolo[2,3-d]pyrimidin-6-yl][(3R)-3-methylmorpholin-4-yl]methanone], the midpoint of inhibition, the IC50, lay at 144 nM. This IC50 is about 18-fold higher than that of the compound before. Under `CN1CCN(C(=O)C2CCc3c(sc4ncnc(Nc5cnc6[nH]ncc6c5)c34)C2)CC1` (racemic) [Example 25, (RS)-(4-Methylpiperazin-1-yl)[4-(1H-pyrazolo[3,4-b]pyridin-5-ylamino)-5,6,7,8-tetrahydro[1]benzothieno[2,3-d]pyrimidin-7-yl]methanone] stands 13.8 nM; under `CCN(C)C(=O)[C@H]1CCc2c(sc3ncnc(Nc4cnc5[nH]ncc5c4)c23)C1` [Example 92, (7S)—N-Ethyl-N-methyl-4-(1H-pyrazolo[3,4-b]pyridin-5-ylamino)-5,6,7,8-tetrahydro[1]benzothieno[2,3-d]pyrimidine-7-carboxamide], 15.4 nM.
